From the NIST ThermoML archive (doi:10.1016/j.jct.2018.08.035)

Experiment: xn = mol fraction of the nth substance listed
Conditions: 100 kPa, Liquid, Vibrating tube method

CCC(O)CC [3-pentanol] + C[N+](=O)[O-]
Conditions	mass density [kg/m3]
289.95 K, x1 = 0.3	1001.59
289.95 K, x1 = 0.325	997.479
289.95 K, x1 = 0.382	989.628
289.95 K, x1 = 0.414	986.685
289.95 K, x1 = 0.486	972.227
289.95 K, x1 = 0.488	969.425
289.95 K, x1 = 0.546	945.729
289.95 K, x1 = 0.573	926.782
289.95 K, x1 = 0.587	917.014
289.95 K, x1 = 0.615	902.235
289.96 K, x1 = 0.246	1008.64
289.96 K, x1 = 0.338	995.659
289.96 K, x1 = 0.363	992.594
289.96 K, x1 = 0.407	986.452
290.05 K, x1 = 0.266	1004.43
290.05 K, x1 = 0.325	996.695
290.05 K, x1 = 0.573	925.737
290.05 K, x1 = 0.587	916.65
290.06 K, x1 = 0.246	1008.03
290.06 K, x1 = 0.275	1005.08
290.06 K, x1 = 0.3	1000.6
290.06 K, x1 = 0.338	994.875
290.06 K, x1 = 0.363	991.838
290.06 K, x1 = 0.382	988.825
290.06 K, x1 = 0.407	985.25
290.06 K, x1 = 0.414	985.261
290.06 K, x1 = 0.486	971.285
290.06 K, x1 = 0.488	967.998
290.06 K, x1 = 0.546	944.207
290.06 K, x1 = 0.615	897.967
290.15 K, x1 = 0.246	1007.82
290.15 K, x1 = 0.266	1003.31
290.15 K, x1 = 0.275	1003.66
290.15 K, x1 = 0.3	999.813
290.15 K, x1 = 0.325	995.904
290.15 K, x1 = 0.363	990.879
290.15 K, x1 = 0.382	987.982
290.15 K, x1 = 0.407	984.083
290.15 K, x1 = 0.414	984.081
290.15 K, x1 = 0.486	970.021
290.15 K, x1 = 0.488	967.145
290.15 K, x1 = 0.546	942.592
290.15 K, x1 = 0.573	923.887
290.15 K, x1 = 0.587	916.211
290.15 K, x1 = 0.615	897.189
290.15 K, x1 = 0.629	888.276
290.16 K, x1 = 0.338	994.25
290.25 K, x1 = 0.246	1007.68
290.25 K, x1 = 0.266	1002.5
290.25 K, x1 = 0.275	1002.12
290.25 K, x1 = 0.3	999.25
290.25 K, x1 = 0.325	995.232
290.25 K, x1 = 0.363	990.096
290.25 K, x1 = 0.382	987.239
290.25 K, x1 = 0.407	983.056
290.25 K, x1 = 0.414	982.887
290.25 K, x1 = 0.486	968.242
290.25 K, x1 = 0.488	965.719
290.25 K, x1 = 0.546	941.205
290.25 K, x1 = 0.573	924.811
290.25 K, x1 = 0.587	914.293
290.25 K, x1 = 0.615	896.918
290.26 K, x1 = 0.338	993.457
290.35 K, x1 = 0.246	1007.56
290.35 K, x1 = 0.3	998.453
290.35 K, x1 = 0.338	992.611
290.35 K, x1 = 0.363	989.111
290.35 K, x1 = 0.382	986.379
290.35 K, x1 = 0.407	982.318
290.35 K, x1 = 0.414	981.695
290.35 K, x1 = 0.486	966.969
290.35 K, x1 = 0.546	939.634
290.35 K, x1 = 0.573	919.469
290.35 K, x1 = 0.587	912.051
290.35 K, x1 = 0.615	896.796
290.36 K, x1 = 0.266	1001.61
290.36 K, x1 = 0.275	1000.44
290.36 K, x1 = 0.325	994.188
290.36 K, x1 = 0.488	964.297
290.45 K, x1 = 0.246	1007.43
290.45 K, x1 = 0.275	998.669
290.45 K, x1 = 0.363	988.212
290.45 K, x1 = 0.382	985.548
290.45 K, x1 = 0.407	981.549
290.45 K, x1 = 0.414	980.935
290.45 K, x1 = 0.486	965.653
290.45 K, x1 = 0.488	962.338
290.45 K, x1 = 0.546	938.388
290.45 K, x1 = 0.573	918.938
290.45 K, x1 = 0.587	911.848
290.45 K, x1 = 0.615	891.445
290.46 K, x1 = 0.266	1000.04
290.46 K, x1 = 0.3	997.097
290.46 K, x1 = 0.325	993.308
290.46 K, x1 = 0.338	991.804
290.55 K, x1 = 0.246	1007.31
290.55 K, x1 = 0.363	987.195
290.55 K, x1 = 0.382	984.63
290.55 K, x1 = 0.407	980.769
290.55 K, x1 = 0.414	980.125
290.55 K, x1 = 0.486	963.548
290.55 K, x1 = 0.546	936.105
290.55 K, x1 = 0.573	918.841
290.55 K, x1 = 0.587	907.457
290.55 K, x1 = 0.615	891.334
290.56 K, x1 = 0.266	999.223
290.56 K, x1 = 0.275	997.256
290.56 K, x1 = 0.3	995.648
290.56 K, x1 = 0.325	992.372
290.56 K, x1 = 0.338	990.851
290.56 K, x1 = 0.488	960.605
290.65 K, x1 = 0.246	1007.18
290.65 K, x1 = 0.275	996.456
290.65 K, x1 = 0.363	986.092
290.65 K, x1 = 0.382	983.656
290.65 K, x1 = 0.407	979.953
290.65 K, x1 = 0.414	979.293
290.65 K, x1 = 0.486	962.186
290.65 K, x1 = 0.488	958.456
290.65 K, x1 = 0.546	933.71
290.65 K, x1 = 0.573	914.236
290.65 K, x1 = 0.587	907.308
290.65 K, x1 = 0.615	891.207
290.66 K, x1 = 0.266	998.714
290.66 K, x1 = 0.3	994.016
290.66 K, x1 = 0.325	991.399
290.66 K, x1 = 0.338	989.957
290.75 K, x1 = 0.246	1007.05
290.75 K, x1 = 0.266	998.54
290.75 K, x1 = 0.275	995.309
290.75 K, x1 = 0.338	988.906
290.75 K, x1 = 0.363	984.963
290.75 K, x1 = 0.382	982.614
290.75 K, x1 = 0.407	979.022
290.75 K, x1 = 0.414	978.364
290.75 K, x1 = 0.486	960.473
290.75 K, x1 = 0.488	956.964
290.75 K, x1 = 0.546	931.465
290.75 K, x1 = 0.573	914.122
290.75 K, x1 = 0.587	904.315
290.75 K, x1 = 0.615	891.079
290.76 K, x1 = 0.3	992.118
290.76 K, x1 = 0.325	990.346
290.85 K, x1 = 0.246	1006.93
290.85 K, x1 = 0.275	994.946
290.85 K, x1 = 0.363	983.532
290.85 K, x1 = 0.382	981.337
290.85 K, x1 = 0.407	977.974
290.85 K, x1 = 0.486	958.566
290.85 K, x1 = 0.488	954.397
290.85 K, x1 = 0.546	930.124
290.85 K, x1 = 0.573	911.261
290.85 K, x1 = 0.587	900.983
290.86 K, x1 = 0.266	998.415
290.86 K, x1 = 0.3	990.332
290.86 K, x1 = 0.325	989.272
290.86 K, x1 = 0.338	987.682
